According to PubChem BioAssay AID328 (DTP/NCI, 2004):
Several values for one entry are separate records, joined by “and”; a condition that tells them apart may be missing. Identical values can stand only once. Inconclusive results and toxic doses are left out.

Test system: BDF1 mice, P388 leukemia ip, median survival T/C
Test: NCI In Vivo Anticancer Drug Screen. Data for tumor model P388 Leukemia (intraperitoneal) in B6D2F1 (BDF1) mice
Details: endpoint: median survival time, higher = longer survival
Procedure, shortened: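 Steps: implant the tumour, treat one group with compound and another with vehicle, record survival, then divide treated by control.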

[1] = dose: 200.0 mg/kg/injection, schedule: Q04DX003 (ip), vehicle: saline with Tween-80
[2] = dose: 400.0 mg/kg/injection, schedule: Q04DX003 (ip), vehicle: saline with Tween-80
[3] = dose: 100.0 mg/kg/injection, schedule: Q04DX003 (ip), vehicle: saline with Tween-80
[4] = dose: 50.0 mg/kg/injection, schedule: Q04DX003 (ip), vehicle: saline
[5] = dose: 100.0 mg/kg/injection, schedule: Q04DX003 (ip), vehicle: saline
[6] = dose: 200.0 mg/kg/injection, schedule: Q04DX003 (ip), vehicle: saline
[7] = dose: 400.0 mg/kg/injection, schedule: Q04DX003 (ip), vehicle: saline
[8] = dose: 100.0 mg/kg/injection, schedule: Q01DX009 (ip), vehicle: saline
[9] = dose: 200.0 mg/kg/injection, schedule: Q01DX009 (ip), vehicle: saline
[10] = dose: 100.0 mg/kg/injection, schedule: Q04DX003 (ip), vehicle: water
[11] = dose: 200.0 mg/kg/injection, schedule: Q04DX003 (ip), vehicle: water
[12] = dose: 50.0 mg/kg/injection, schedule: Q04DX003 (ip), vehicle: saline with Tween-80

For `CCC1CN1P(=O)(Oc1ccc2ccccc2c1)N1CC1CC` (stereo not given), the T/C [1] was 245 % of control and the T/C [2] was 86 % of control.

In the case of `CC(C)NC(=O)c1ccccc1Sc1ccccc1C(=O)NC(C)C`, the T/C [3] is reported as 105 % of control, the T/C [1] is reported as 105 % of control and the T/C [2] is reported as 99 % of control.

With `O=C1C=CC(=O)c2cc(Cl)c(Cl)cc21` the T/C (dose: 3.13 mg/kg/injection, schedule: Q01DX009 (ip), vehicle: saline with Tween-80) was 118 % of control and the T/C (dose: 12.5 mg/kg/injection, schedule: Q01DX009 (ip), vehicle: saline with Tween-80) was 86 % of control.

For `COC(OC)c1[nH]c(=S)[nH]c(=O)c1C`, the T/C (dose: 100.0 mg/kg/injection, schedule: Q04DX003 (sc), vehicle: olive oil, sesame oil, peanut oil) was 90 % of control, the T/C (dose: 200.0 mg/kg/injection, schedule: Q04DX003 (sc), vehicle: olive oil, sesame oil, peanut oil) was 95 % of control and the T/C (dose: 400.0 mg/kg/injection, schedule: Q04DX003 (sc), vehicle: olive oil, sesame oil, peanut oil) was 90 % of control.

For `C[n+]1ccc(/C=N/O)cc1`, the T/C (dose: 25.0 mg/kg/injection, schedule: Q04DX003 (ip), vehicle: saline) was 105 % of control, the T/C [4] was 103 % of control and the T/C [5] was 98 % of control. The T/C [6] was 89 % of control and 100 % of control and the T/C [7] was 86 % of control.

For `CCCC(O)C(NC(=O)CCl)C(=O)O` (stereo not given), the T/C (dose: 125.0 mg/kg/injection, schedule: Q01DX005 (ip), vehicle: other) was 104 % of control and the T/C (dose: 250.0 mg/kg/injection, schedule: Q01DX005 (ip), vehicle: other) was 104 % of control.

`O=C(O)CCCOc1cc(Cl)c(Cl)cc1Cl` was tested, and the T/C (dose: 50.0 mg/kg/injection, schedule: Q01DX009 (ip), vehicle: gum acacia) was 107 % of control, the T/C (dose: 50.0 mg/kg/injection, schedule: Q04DX003 (ip), vehicle: gum acacia) was 100 % of control and the T/C (dose: 100.0 mg/kg/injection, schedule: Q01DX009 (ip), vehicle: gum acacia) was 107 % of control. For the same compound, the T/C (dose: 100.0 mg/kg/injection, schedule: Q04DX003 (ip), vehicle: gum acacia) was 104 % of control, the T/C (dose: 200.0 mg/kg/injection, schedule: Q01DX009 (ip), vehicle: gum acacia) was 107 % of control and the T/C (dose: 200.0 mg/kg/injection, schedule: Q04DX003 (ip), vehicle: gum acacia) was 122 % of control.

`C[C@]12CCC(=O)C=C1CC[C@@H]1[C@@H]2[C@@H](O)C[C@@]2(C)[C@H]1CC[C@]2(O)C(=O)CO` was tested, and the T/C (dose: 6.25 mg/kg/injection, schedule: Q01DX010 (sc), vehicle: steriod suspending solution) was 100 % of control, the T/C (dose: 12.5 mg/kg/injection, schedule: Q01DX010 (sc), vehicle: steriod suspending solution) was 100 % of control and the T/C (dose: 25.0 mg/kg/injection, schedule: Q01DX010 (sc), vehicle: steriod suspending solution) was 110 % of control. For the same compound, the T/C (dose: 50.0 mg/kg/injection, schedule: Q01DX010 (sc), vehicle: steriod suspending solution) was 120 % of control, the T/C (dose: 100.0 mg/kg/injection, schedule: Q01DX010 (sc), vehicle: steriod suspending solution) was 115 % of control and 120 % of control and the T/C (dose: 200.0 mg/kg/injection, schedule: Q01DX010 (sc), vehicle: steriod suspending solution) was 110 % of control.

For `CC(Cc1ccccc1)CC(C(=O)O)C(=O)O` (stereo not given), the T/C [3] was 100 % of control and the T/C [1] was 99 % of control.

`CN(C)c1ccc(/C=C/c2ccnc3ccccc23)c(O)c1` was tested, and the T/C [3] was 113 % of control.

In the case of `CC(=O)C1C(=O)OC2(C)C(=O)C3=COC(/C=C\C(C)=C/C(C)C)=CC3=CC12` (stereo not given), the T/C (dose: 75.0 mg/kg/injection, schedule: Q01DX009 (ip), vehicle: saline with Tween-80) is reported as 107 % of control and the T/C (dose: 150.0 mg/kg/injection, schedule: Q01DX009 (ip), vehicle: saline with Tween-80) is reported as 151 % of control.

In the case of `O/N=c1/cc(-c2ccc(Cl)cc2)ss1`, the T/C (dose: 25.0 mg/kg/injection, schedule: Q01DX009 (ip), vehicle: saline) is reported as 114 % of control, the T/C [4] is reported as 100 % of control and 113 % of control and the T/C [8] is reported as 106 % of control. For the same compound, the T/C [5] was 93 % of control and 106 % of control and 110 % of control, the T/C [9] was 92 % of control and the T/C [6] was 96 % of control and 102 % of control. The T/C (dose: 400.0 mg/kg/injection, schedule: Q01DX009 (ip), vehicle: saline) was 96 % of control, the T/C [7] was 102 % of control and the T/C (dose: 600.0 mg/kg/injection, schedule: Q04DX003 (ip), vehicle: saline) was 90 % of control.

For `C[CH2][Pb]([CH2]C)([CH2]C)[O]C(=O)CBr`, the T/C (dose: 2.0 mg/kg/injection, schedule: Q01DX009 (ip), vehicle: other) was 109 % of control, the T/C (dose: 4.5 mg/kg/injection, schedule: Q01DX009 (ip), vehicle: other) was 101 % of control and the T/C (dose: 6.0 mg/kg/injection, schedule: Q01DX009 (ip), vehicle: Klucel (hydroxypropylcellulose) (HPC)) was 120 % of control. The T/C (dose: 12.0 mg/kg/injection, schedule: Q01DX009 (ip), vehicle: Klucel (hydroxypropylcellulose) (HPC)) was 103 % of control.

In the case of `OCCSc1ncc2cnccn12`, the T/C [10] is reported as 109 % of control, the T/C [11] is reported as 109 % of control and the T/C (dose: 400.0 mg/kg/injection, schedule: Q04DX003 (ip), vehicle: water) is reported as 109 % of control.

With `O=c1[nH]c(-c2ccccc2)c(-c2ccccc2)[nH]1` the T/C (dose: 12.5 mg/kg/injection, schedule: Q01DX009 (ip), vehicle: Klucel (hydroxypropylcellulose) (HPC)) was 95 % of control, the T/C (dose: 25.0 mg/kg/injection, schedule: Q01DX009 (ip), vehicle: Klucel (hydroxypropylcellulose) (HPC)) was 86 % of control and the T/C (dose: 50.0 mg/kg/injection, schedule: Q01DX009 (ip), vehicle: Klucel (hydroxypropylcellulose) (HPC)) was 86 % of control.

For `CCN(CC)CCCC(C)NC(=O)c1cc(=O)[nH]c(=O)[nH]1` (stereo not given), the T/C (dose: 25.0 mg/kg/injection, schedule: Q01DX009 (ip), vehicle: water) was 103 % of control, the T/C (dose: 50.0 mg/kg/injection, schedule: Q01DX009 (ip), vehicle: water) was 106 % of control and the T/C (dose: 100.0 mg/kg/injection, schedule: Q01DX009 (ip), vehicle: water) was 100 % of control. The T/C [10] was 100 % of control and the T/C [11] was 98 % of control.

With `O=c1c2ccccc2sc2c(CO)ccc(NCCN3CCCCC3)c12` the T/C [12] was 101 % of control, the T/C [3] was 101 % of control and the T/C (dose: 176.0 mg/kg/injection, schedule: Q04DX003 (ip), vehicle: saline with Tween-80) was 115 % of control. For the same compound, the T/C [1] was 110 % of control, the T/C (dose: 264.0 mg/kg/injection, schedule: Q04DX003 (ip), vehicle: saline with Tween-80) was 123 % of control and the T/C (dose: 600.0 mg/kg/injection, schedule: Q04DX003 (ip), vehicle: saline with Tween-80) was 180 % of control.

In the case of `Cc1cc2nc(CBr)c(CBr)nc2cc1C`, the T/C (dose: 1.56 mg/kg/injection, schedule: Q01DX009 (ip), vehicle: saline) is reported as 120 % of control, the T/C (dose: 3.12 mg/kg/injection, schedule: Q01DX009 (ip), vehicle: saline) is reported as 120 % of control and the T/C (dose: 3.12 mg/kg/injection, schedule: Q04DX003 (ip), vehicle: saline) is reported as 95 % of control. For the same compound, the T/C (dose: 6.25 mg/kg/injection, schedule: Q01DX009 (ip), vehicle: saline) was 95 % of control, the T/C (dose: 6.25 mg/kg/injection, schedule: Q04DX003 (ip), vehicle: saline) was 100 % of control and the T/C (dose: 8.75 mg/kg/injection, schedule: Q01DX001 (ip), vehicle: Klucel (hydroxypropylcellulose) (HPC)) was 94 % of control. The T/C (dose: 12.5 mg/kg/injection, schedule: Q04DX003 (ip), vehicle: saline) was 90 % of control, the T/C (dose: 17.5 mg/kg/injection, schedule: Q01DX001 (ip), vehicle: Klucel (hydroxypropylcellulose) (HPC)) was 88 % of control and the T/C (dose: 18.0 mg/kg/injection, schedule: Q04DX003 (ip), vehicle: saline) was 90 % of control. For the same compound, the T/C (dose: 35.0 mg/kg/injection, schedule: Q01DX001 (ip), vehicle: Klucel (hydroxypropylcellulose) (HPC)) was 88 % of control.

With `CCN(CC)c1ccc(/C=C\c2c(C)cnc3ccccc23)cc1` the T/C (dose: 25.0 mg/kg/injection, schedule: Q04DX003 (ip), vehicle: saline with Tween-80) was 95 % of control, the T/C [12] was 95 % of control and the T/C [3] was 96 % of control and 110 % of control. The T/C [1] was 97 % of control and the T/C [2] was 97 % of control.

For `Clc1ccc(N=Cc2ccccc2)cc1`, the T/C (dose: 100.0 mg/kg/injection, schedule: Q01DX009 (ip), vehicle: Klucel (hydroxypropylcellulose) (HPC)) was 90 % of control, the T/C (dose: 100.0 mg/kg/injection, schedule: Q04DX003 (ip), vehicle: Klucel (hydroxypropylcellulose) (HPC)) was 108 % of control and the T/C (dose: 200.0 mg/kg/injection, schedule: Q01DX009 (ip), vehicle: Klucel (hydroxypropylcellulose) (HPC)) was 90 % of control. For the same compound, the T/C (dose: 200.0 mg/kg/injection, schedule: Q04DX003 (ip), vehicle: Klucel (hydroxypropylcellulose) (HPC)) was 95 % of control and the T/C (dose: 400.0 mg/kg/injection, schedule: Q04DX003 (ip), vehicle: Klucel (hydroxypropylcellulose) (HPC)) was 100 % of control.

For `NC(N)=Nc1ccc(C(=O)Nc2ccc([N+](=O)[O-])cc2)cc1`, the T/C (dose: 50.0 mg/kg/injection, schedule: Q01DX009 (ip), vehicle: saline) was 101 % of control, the T/C [8] was 103 % of control and the T/C [5] was 97 % of control. For the same compound, the T/C [9] was 91 % of control, the T/C [6] was 91 % of control and the T/C [7] was 100 % of control.
